From EP0926242A1, “GLIOTOXIN DERIVATIVES AND ANTICANCER AGENT COMPRISING THE SAME” (priority 1996, dated 1998)

How the values were obtained:
[1] = system: human carcinoma of the colon HCT-116; assay: Evaluation in vivo using human carcinoma of the colon HCT-116 (Example 1); set-up: species or system Balb/c nu/nu mice; settings: for I. R. (%): day 21, Balb/c nu/nu mice
Description: (§1) Balb/c nu/nu mice (female: 5 weeks old) were bought, and HCT- 116 subcultured in vivo in the subcutaneous tissue was taken out. The HCT-116 was minced in a Petridish, and transplanted into the sulcutaneous tissue of […] mice in an amount of 30 mg/mouse by a trucker. The transplanted day was assigned day 0, and the size of the tumor and body weight were measured on day 7 and divided into groups by n=2.
(§2) Acetylgliotoxin was dissolved in dimethyl sulfoxide (DMSO) in a concentration of 100 mg/mL, and adjusted to an object concentration (0.5 mg/kg, 1 mg/kg, 10 mg/kg, 20 mg/kg) by 5 % Tween 80 (saline solution). In the evaluation of 0.5, 1 mg/kg, injection was carried out every day for 5 days, in the case of 10 mg/kg, injected twice on day 7 and day8, and in the case of 20 mg/kg, injected once on day 7.
The anticancer effect was evaluated by the inhibition rate of tumor cell multiplication (IR calculated from the weight of tumor. IR was obtained by the following formula.

[2] = system: Human carcinoma of the colon cell strain HCT-116; assay: Tertiary culture using test human cancer, killed cells by MTT method; type: cell-based; settings: incubated 3 days
Description: Tertiary cultures were carried out using a human carcinoma of the colon tissue in stage 2b. The tertiary cultures were carried out according to the reported method (Int.J.Cancer Res., 82, 607-612 (1991), Gan to Kagakuryoho, 18, 239-243 (1991), Gan to Kagakuryoho, 19, 743-748 (1992)). The extracted tissue of carninoma of the colon was cut into square pieces having a side of about 2 mm, and incubated in a RPMI- 1640 medium containing 10 % fetal calf serum under 5 % CO2 at 37 °C for 3 days. Existing anticancer agents or acetylgliotoxin were diluted and added, and further incubated for 3 days. Then, the rate of killed cells was determined by the MTT method. The tertiary cultures using the test human cancer were carried out as follows: Human carcinoma of the colon cell strain HCT-116 was transplanted into the subcutaneous tissue of a nude mouse (Balb nu/nu) to induce tumor. The cancer tissue was extracted from the tumor-induced portion, and cut into square pieces having a side of 2 mm. The evaluation of the existing anticancer agents and acetylyliotoxin was earried out according to the aforementioned method.

[3] = Body weight in the COLON-26 evaluation in vivo (Example 1); set-up: species or system CDFI mice; settings: day 21, COLON-26 mice, control 24.7 g
Description: as §1, with “CDFI” for “Balb/c nu/nu”, “4” for “5”, “colon-26” for “HCT- 116”, “colon-26” for “HCT-116”, “10” for “30”, “n=4. The size of tumor was calculated as tumor weight by the following formula. (Tumor Weight (mg) = Tumor Volume (mm)^3 =1/2 × Major Axis (mm) × Minor Axis (mm))^2 [formula]” for “n=2.”
as §2, with “Administration was carried out from day 7 according to the following schedule. Dose was 0.2 mL/mouse, and injected into abdominal cavity. Acetylgliotoxin” for “Acetylgliotoxin”, “5%” for “5 %”, “[…],” for “0.5,”, “day 8,” for “day8,”

[4] = Body weight in the HCT-116 evaluation in vivo (Example 1); set-up: species or system Balb/c nu/nu mice; settings: day 21, HCT-116 mice, control 17.5 g
Description: as §1, §2

[5] = system: mouse carcinoma of the colon COLON-26; assay: Evaluation in vivo using mouse carcinoma of the colon COLON-26 (Example 1); settings: day 21, CDFI mice
Description: as §1, with “CDFI” for “Balb/c nu/nu”, “4” for “5”, “colon-26” for “HCT- 116”, “colon-26” for “HCT-116”, “10” for “30”, “n=4. The size of tumor was calculated as tumor weight by the following formula. (Tumor Weight (mg) = Tumor Volume (mm)^3 =1/2 × Major Axis (mm) × Minor Axis (mm))^2 [formula]” for “n=2.”
as §2, with “Administration was carried out from day 7 according to the following schedule. Dose was 0.2 mL/mouse, and injected into abdominal cavity. Acetylgliotoxin” for “Acetylgliotoxin”, “5%” for “5 %”, “[…],” for “0.5,”, “day 8,” for “day8,”
The anticancer effect was evaluated by the inhibition rate of tumor cell multiplication (IR calculated from the weight of tumor. IR was obtained by the following formula. IR (%) = (1-Tumor Weight of Administration Group/Tumor Weight of Control Group) [formula]

CC(=O)OC1C=CC=C2CC34SSC(CO)(C(=O)N3C21)N(C)C4=O (centres unmarked) [acetylgliotoxin]
I. R. (%) ([1]; 0.5 mg/kg×5 i.p.(d7-11)): 41% | I. R. (%) ([1]; 1 mg/kg×5 i.p.(d7-11)): 65% | I. R. (%) ([1]; 10 mg/kg×2 i.p.(d7, 8)): 65% | I. R. (%) ([1]; 20 mg/kg×1 i.p. (d7)): 28% | duration of anticancer effects ([1]; Test Example (B), 1 mg/kg × 5 and 10 mg/kg × 2): continued up to day 42 | I. R. (%) ([2]; conc. 6.25 ug/mL): 43% | I. R. (%) ([2]; conc. 12.5 ug/mL): 56% | I. R. (%) ([2]; conc. 25 ug/mL): 67% | weight ([3]; 0.5 mg/kg×5 i.p.(d7-11)): 24.7 g | weight ([3]; 1 mg/kg×5 i.p.(d7-11)): 24.9 g | weight ([3]; 10 mg/kg×2 i.p.(d7, 8)): 24.1 g | weight ([3]; 20 mg/kg×1 i.p.(d7)): 25.2 g | weight ([4]; 0.5 mg/kg×5 i.p.(d7-11)): 17.1 g | weight ([4]; 1 mg/kg×5 i.p.(d7-11)): 17.8 g | weight ([4]; 10 mg/kg×2 i.p.(d7, 8)): 15.8 g | weight ([4]; 20 mg/kg×1 i.p. (d7)): 15.9 g | I. R. (%) ([5]; 0.5 mg/kg×5 i.p.(d7-11)): 28% | I. R. (%) ([5]; 1 mg/kg×5 i.p.(d7-11)): 19% | I. R. (%) ([5]; 10 mg/kg×2 i.p.(d7, 8)): 38% | I. R. (%) ([5]; 20 mg/kg×1 i.p.(d7)): 34%
